# Where two headings read alike, the source gives them in different places.
# What was measured:
# [1] = Serum level after oral administration; assay type: in vivo; conditions: 125 mg/kg oral (5% arabin gum), HPLC, mice n=3
# Experimental: | Dose: 125 mg/kg (5% arabin gum)
# [2] = test system: Influenza virus A2 /Adachi; experiment: microbe, parasite or virus in culture; assay type: cell-based
# [3] = test system: Escherichia coli W3630 RGN 823; experiment: Agar dilution antibacterial MIC; assay type: cell-based; conditions: W3630RGN823, read-out: Minimum Inhibitory Concentration
# [4] = Solubility; assay type: physicochemical
# [5] = test system: Proteus morganii Kono; experiment: Agar dilution antibacterial MIC; assay type: cell-based; conditions: Morganella morganii; agar dilution method; read-out: Minimum Inhibitory Concentration
# [6] = test system: Influenza virus B/Lee; experiment: microbe, parasite or virus in culture; assay type: cell-based; conditions: unidentified influenza virus, 48 h, read-out: 50% Virus proliferation inhibiting conc.
# [7] = test system: Proteus vulgaris OX-19; experiment: Agar dilution antibacterial MIC; assay type: cell-based; conditions: OX19, agar dilution method, read-out: Minimum Inhibitory Concentration
# [8] = test system: Staphylococcus aureus Smith; experiment: Agar dilution antibacterial MIC; assay type: cell-based; conditions: agar dilution method, read-out: Minimum Inhibitory Concentration
# [9] = Serum level after intraperitoneal administration; assay type: in vivo; conditions: 200 mg/kg intraperitoneal (1% CMC), biological assay, mice n=5
# Experimental: | Dose: 200 mg/kg (1% CMC)
# [10] = test system: Citrobacter freundii GN 346; experiment: Agar dilution antibacterial MIC; assay type: cell-based; conditions: GN346, read-out: Minimum Inhibitory Concentration
# [11] = test system: Influenza virus B/Lee; experiment: microbe, parasite or virus in culture; assay type: cell-based
# [12] = test system: Staphylococcus aureus 209P; experiment: Agar dilution antibacterial MIC; assay type: cell-based; conditions: agar dilution method, read-out: Minimum Inhibitory Concentration
# [13] = test system: Influenza virus Horse/Miami; experiment: microbe, parasite or virus in culture; assay type: cell-based
# [14] = test system: Escherichia coli No. 29; experiment: Agar dilution antibacterial MIC; assay type: cell-based; conditions: agar dilution method, read-out: Minimum Inhibitory Concentration
# [15] = test system: Influenza virus A2 /Adachi; experiment: microbe, parasite or virus in culture; assay type: cell-based; remark: listed apart in the source
# [16] = Stability; assay type: physicochemical
# Description: (13) Stability: Stable under acidic to neutral condition, instable under alkaline condition.
# [17] = test system: Salmonella typhi 0-901-W; experiment: Agar dilution antibacterial MIC; assay type: cell-based; conditions: Salmonella enterica, read-out: Minimum Inhibitory Concentration
# [18] = test system: Vibrio percolance; experiment: Paper disc plate bioassay, inhibition zone; assay type: cell-based; conditions: paper disc plate method, read-out: diameter of inhibition zone
# Description: For assay of the substance SF-2140, bioassay agar is used as a medium for assay and Vibrio percolance is as a test microbe.
# [19] = in vitro; conditions: chicken, chorioallantoic membrane
# [20] = test system: Shigella sonnei EW33 type I; experiment: Agar dilution antibacterial MIC; assay type: cell-based; conditions: EW33TYPEI, agar dilution method, read-out: Minimum Inhibitory Concentration
# [21] = test system: Sarcina lutea; experiment: Agar dilution antibacterial MIC; assay type: cell-based; conditions: Micrococcus luteus; agar dilution method; read-out: Minimum Inhibitory Concentration
# [22] = test system: Klebsiella pneumoniae PCI 602; experiment: Agar dilution antibacterial MIC; assay type: cell-based; conditions: PCI602, agar dilution method, read-out: Minimum Inhibitory Concentration
# [23] = test system: Pseudomonas cepacia M-0527; experiment: Agar dilution antibacterial MIC; assay type: cell-based; conditions: Burkholderia cepacia, M0527; agar dilution method; read-out: Minimum Inhibitory Concentration
# [24] = test system: Salmonella enteritidis No. 11; experiment: Agar dilution antibacterial MIC; assay type: cell-based; conditions: Salmonella enterica, agar dilution method, read-out: Minimum Inhibitory Concentration
# [25] = test system: Influenza virus A1 /FM-1; experiment: microbe, parasite or virus in culture; assay type: cell-based
# [26] = test system: Influenza virus A1 /FM-1; experiment: microbe, parasite or virus in culture; assay type: cell-based; remark: listed apart in the source
# [27] = test system: Pseudomonas aeruginosa MB 3829; experiment: Agar dilution antibacterial MIC; assay type: cell-based; conditions: MB3829, agar dilution method, read-out: Minimum Inhibitory Concentration
# [28] = test system: Baciullus anthrasis No. 119; experiment: Agar dilution antibacterial MIC; assay type: cell-based; conditions: read-out: Minimum Inhibitory Concentration
# [29] = test system: Influenza virus Horse/Miami; experiment: microbe, parasite or virus in culture; assay type: cell-based; remark: listed apart in the source
# [30] = test system: Streptococcus faecalis ATCC 8043; experiment: Agar dilution antibacterial MIC; assay type: cell-based; conditions: Enterococcus faecalis, ATCC8043; agar dilution method; read-out: Minimum Inhibitory Concentration
# [31] = Acute toxicity (LD50); conditions: mouse, in vivo, ip; mice, intraperitoneal
# Experimental: Acute toxicity (LD50 value) of the substance SF-2140, the active ingredient in the present antiviral agent, was not less than 500 mg/kg in mice via intraperitoneal administration.
# [32] = unidentified influenza virus, 48 h, read-out: 50% Virus proliferation inhibiting conc.
# [33] = unidentified influenza virus, 2 h, read-out: 50% Virucidal conc.
smiles,measurement,setting,value
COC(=O)C1CC(O)C(O)C(n2cc(CC#N)c3c(OC)cccc32)O1 (stereo not shown) [SF-2140],Serum concentration,[1]; 180 min,0 ng/mL
same,concentration at 0.5 h,"[1]; mouse, serum, 30 min",15000 ng/mL
same,concentration at 1 h,"[1]; mouse, serum, 60 min",7000 ng/mL
same,proliferation inhibiting activity (in words),[2],showed a proliferation inhibiting activity
same,virus proliferation inhibition index,"[2]; A2 /Adachi, 50% toxicity conc. / 50% proliferation inhibiting conc., 2880 min",> 10.0
same,IC50,[2]; [32],100 µg/mL
same,MIC,[3],50 µg/mL
same,Solubility,"[4]; Ethyl acetate, benzene, acetone, chloroform",Soluble
same,Solubility,"[4]; Hexane, water",Substantially insoluble
same,Solubility,"[4]; Lower alcohol, e.g. methanol and ethanol",Easily soluble
same,MIC,[5],> 100 µg/mL
same,IC50,[6],> 200 µg/mL
same,MIC,[7],25 µg/mL
same,MIC,[8],100 µg/mL
same,Serum concentration,[9]; 90 min,0 ng/mL
same,concentration at 5 min,"[9]; mouse, serum, ip, 5 min",30000 ng/mL
same,concentration at 10 min,"[9]; mouse, serum, ip, 10 min",42000 ng/mL
same,concentration at 20 min,"[9]; mouse, serum, ip, 20 min",55000 ng/mL
same,concentration at 0.5 h,"[9]; mouse, serum, ip, 30 min",45000 ng/mL
same,concentration at 1 h,"[9]; mouse, serum, ip, 60 min",27000 ng/mL
same,MIC,[10],> 100 µg/mL
same,virucidal activity (in words),[11],potent virucidal activity
same,IC50,[11]; [33],46.4 µg/mL
same,MIC,[12],25 µg/mL
same,proliferation inhibiting activity (in words),[13],showed a proliferation inhibiting activity
same,virus proliferation inhibition index,"[13]; Horse/Miami, 50% toxicity conc. / 50% proliferation inhibiting conc., 2880 min",> 56.5
same,IC50,[13]; [32],17.7 µg/mL
same,MIC,[14],> 100 µg/mL
same,virucidal activity (in words),[15],potent virucidal activity
same,IC50,[15]; [33],58.8 µg/mL
same,Stability,[16]; acidic to neutral condition,Stable
same,Stability,[16]; alkaline condition,instable
same,MIC,[17],100 µg/mL
same,zone of inhibition at 125 µg/mL,[18]; 125 mcg/ml,14.6 mm
same,zone of inhibition at 1000 µg/mL,[18]; 1000 mcg/ml,22 mm
same,CC50 at 24 h,[19],> 1000 µg/mL
same,MIC,[20],> 100 µg/mL
same,MIC,[21],50 µg/mL
same,MIC,[22],> 100 µg/mL
same,MIC,[23],100 µg/mL
same,MIC,[24],12.5 µg/mL
same,proliferation inhibiting activity (in words),[25],showed a proliferation inhibiting activity
same,virus proliferation inhibition index,"[25]; A1 /FM-1, 50% toxicity conc. / 50% proliferation inhibiting conc., 2880 min",> 20.0
same,IC50,[25]; [32],50.5 µg/mL
same,virucidal activity (in words),[26],potent virucidal activity
same,IC50,[26]; [33],4.6 µg/mL
same,MIC,[27],> 100 µg/mL
same,MIC,[28],6.25 µg/mL
same,virucidal activity (in words),[29],potent virucidal activity
same,IC50,[29]; [33],4.6 µg/mL
same,MIC,[30],12.5 µg/mL
same,LD50,[31],≥ 500 mg/kg

# — US4536398A, “Antiviral agents” (Meiji Seika Kaisha Ltd., priority 1982, dated 1985)
